A word on the Ki: it is a dissociation constant, usually derived from enzyme kinetics or from competition with a known ligand.

Where two headings read alike, the source gives them in different places.

The target in series [1] is T1, serotonin transporter (SERT) (Rattus norvegicus, UniProt P31652).
T1 construct: membranes prepared from either the rat cortical tissues or cells expressed with cloned-human transporters; from tissue; host or cells: rat cortical tissue membranes (inferred; the alternative is cells expressing cloned human SERT)
T1 sequence (P31652 whole entry): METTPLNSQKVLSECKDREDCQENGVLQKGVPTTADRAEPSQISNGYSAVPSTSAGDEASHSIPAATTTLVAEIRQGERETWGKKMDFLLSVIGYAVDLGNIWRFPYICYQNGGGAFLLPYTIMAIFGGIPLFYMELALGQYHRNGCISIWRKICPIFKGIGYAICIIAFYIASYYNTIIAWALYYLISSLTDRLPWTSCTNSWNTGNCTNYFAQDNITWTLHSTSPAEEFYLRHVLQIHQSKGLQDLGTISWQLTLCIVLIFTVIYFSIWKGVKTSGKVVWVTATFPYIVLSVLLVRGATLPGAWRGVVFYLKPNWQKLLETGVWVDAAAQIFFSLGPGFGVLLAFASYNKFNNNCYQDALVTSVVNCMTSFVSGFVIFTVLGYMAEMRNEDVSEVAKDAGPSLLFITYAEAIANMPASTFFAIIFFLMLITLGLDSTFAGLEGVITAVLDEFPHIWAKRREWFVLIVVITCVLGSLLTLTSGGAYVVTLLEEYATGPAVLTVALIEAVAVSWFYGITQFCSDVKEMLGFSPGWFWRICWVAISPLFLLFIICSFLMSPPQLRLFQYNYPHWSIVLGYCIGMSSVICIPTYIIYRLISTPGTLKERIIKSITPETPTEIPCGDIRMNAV
As to the kind of experiment: In vitro binding affinity for SERT, radioligand [^3H]paroxetine (Table 1). Further details: species or system rat or human (cloned). As to the method:
(§1) Selected compounds were assayed in vitro for their binding affinity for the dopamine transporter (DAT), serotonin transporter (SERT), and norepinephrine transporter (NET) using membranes prepared from either the rat cortical tissues or cells expressed with cloned-human transporters and radioligands. Radioligands used were [^3H]paroxetine (SERT), [^3H]nisoxetine (NET), and [^3H]GBR12935 (DAT).

Series [2] addresses T2, dopamine transporter (DAT) (Homo sapiens, UniProt Q01959).
T2 construct: host or cells: either rat cortical tissue or cells expressing the cloned human transporter
As to the kind of experiment: In vitro binding affinity for DAT, radioligand [^3H]GBR12935 (Table 1). Further details: species or system rat or human (cloned). The procedure:
as §1

Series [3] addresses T3, norepinephrine transporter (NET) (Homo sapiens, UniProt P23975).
T3 construct: host or cells: either rat cortical tissue or cells expressing the cloned human transporter
The series is described as follows: In vitro binding affinity for NET, radioligand [^3H]nisoxetine (Table 1). More on the design: species or system rat or human (cloned). The procedure:
as §1

A short description of series [4]: Biodistribution of labeled radioligands in male Sprague-Dawley rats. The settings on record: mean ± SD, n = 3. Format: in vivo. The source says: Appropriately labeled compounds were studied in animals to assess their binding characteristics in the brain. Procedures for these biodistribution studies are as follows. […] The brain regions (cerebellum, hippocampus, striatum, frontal cortex, thalamus and hypothalamus), along with samples of blood and part of the tail, were removed, weighed, and counted in a Packard Cobra II gamma counter. The percent injected dose (% ID) of the decay- and tail-corrected activity in the brain regions and blood were calculated based upon C-11 standards prepared from the injection solution, and the % ID/g were calculated using the tissue weights.

Series [5] in a line: Experiment 5: plasma clearance of ^11C and ^18F labeled AFM, AFA, AFE in one baboon. The settings on record: one adult male baboon, n = 1 to 4 scans. Format: in vivo. As to the method:
(§2) General scanning methods were as described in Huang et al. (2002). Arterial input function was measured and corrected for metabolites.

The subject of another series is SERT. The series is described as follows: Experiment 5: PET brain imaging of ^11C and ^18F labeled AFM, AFA, AFE in one baboon. Format: in vivo. The settings on record: one adult male baboon, n = 1 to 4 scans, two-compartment model. As to the method:
as §2
Activity distributed in the brain in accordance to the known density distribution pattern of SERT (Laruelle et al., 1988). […] Data were analyzed with a two-compartment model, using the metabolite-corrected arterial time-activity curve as input function. This analysis provided the regional distribution volumes (VT, mL/g).
The nonspecific distribution volume, measured as the distribution volume of the cerebellum (a region with negligible SERT density) was in a similar range for all tracers (10 to 30 mL/g, Table 16).
The specific to nonspecific partition coefficient, V3″, was calculated as the ratio of VT in the region of interest (ROI) to cerebellum VT minus one. V3″ provides a measure related to receptor parameters as follows: […]

T3 sequence (P23975 whole entry, species assumed): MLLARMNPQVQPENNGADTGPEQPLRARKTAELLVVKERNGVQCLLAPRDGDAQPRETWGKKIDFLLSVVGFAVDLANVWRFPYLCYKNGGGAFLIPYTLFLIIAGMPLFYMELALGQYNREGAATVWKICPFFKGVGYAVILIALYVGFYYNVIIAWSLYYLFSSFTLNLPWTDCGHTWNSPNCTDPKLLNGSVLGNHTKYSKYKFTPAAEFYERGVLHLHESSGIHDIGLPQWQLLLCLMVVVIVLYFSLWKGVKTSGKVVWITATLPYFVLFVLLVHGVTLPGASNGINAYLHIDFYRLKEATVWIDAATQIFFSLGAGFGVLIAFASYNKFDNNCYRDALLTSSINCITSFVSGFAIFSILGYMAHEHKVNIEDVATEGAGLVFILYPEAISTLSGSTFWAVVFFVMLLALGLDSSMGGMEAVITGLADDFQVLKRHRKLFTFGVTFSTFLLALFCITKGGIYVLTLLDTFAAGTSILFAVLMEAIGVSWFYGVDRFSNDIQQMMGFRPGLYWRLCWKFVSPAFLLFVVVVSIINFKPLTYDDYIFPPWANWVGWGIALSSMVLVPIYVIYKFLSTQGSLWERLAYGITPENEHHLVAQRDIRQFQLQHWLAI
T2 sequence (Q01959 whole entry, species assumed): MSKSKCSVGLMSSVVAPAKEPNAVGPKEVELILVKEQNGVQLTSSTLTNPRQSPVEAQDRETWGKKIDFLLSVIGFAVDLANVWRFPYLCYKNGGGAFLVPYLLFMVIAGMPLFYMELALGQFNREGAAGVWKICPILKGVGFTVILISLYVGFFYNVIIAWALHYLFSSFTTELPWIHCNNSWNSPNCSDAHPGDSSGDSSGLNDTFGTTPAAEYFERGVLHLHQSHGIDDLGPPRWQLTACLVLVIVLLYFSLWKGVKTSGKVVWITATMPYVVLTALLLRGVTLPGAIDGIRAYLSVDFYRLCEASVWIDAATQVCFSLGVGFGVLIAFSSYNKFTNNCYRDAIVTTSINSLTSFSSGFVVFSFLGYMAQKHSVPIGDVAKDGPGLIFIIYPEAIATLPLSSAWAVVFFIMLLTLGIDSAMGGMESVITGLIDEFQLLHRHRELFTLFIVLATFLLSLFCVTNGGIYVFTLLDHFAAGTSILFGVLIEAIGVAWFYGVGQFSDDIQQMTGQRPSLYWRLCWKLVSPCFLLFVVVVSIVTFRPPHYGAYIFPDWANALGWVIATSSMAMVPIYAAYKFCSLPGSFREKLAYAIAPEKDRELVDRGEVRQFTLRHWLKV

`Cc1ccc(Sc2ccccc2CN(C)C)c(N)c1` [MADAM, 2-(2-(Dimethylaminomethyl)phenylthio)-5-methylphenylamine]: the results for the Ki in series [1], in series [2] and in series [3] were 1.19 nM, over 10000 nM and 320 nM, respectively.
`Cc1ccc(Sc2ccccc2CN(C)[11CH3])c(N)c1` [[^11C]MADAM, [^11C]2-[2-(Dimethylaminomethyl)phenylthio]-5-methylphenylamine]: in series [4] (10 min post-injection), the “% ID/g Blood” value was 0.61 ± 0.15 % ID/g, the “% ID/g Cerebellum” value is 1.04 ± 0.33 % ID/g, the “% ID/g Frontal Ctx.” value turned out to be 2.17 ± 0.78 % ID/g and the “% ID/g Hippocamp.” value is reported as 1.39 ± 0.29 % ID/g. Moreover, in series [4] (10 min post-injection), the “% ID/g Hypothal.” value is given as 1.93 ± 0.72 % ID/g, the “% ID/g Striatum” value stood at 1.57 ± 0.54 % ID/g and the “% ID/g Thalamus” value is 1.95 ± 0.61 % ID/g. In addition, in series [4] (30 min post-injection), the “% ID/g Blood” value is listed as 0.26 ± 0.07 % ID/g, the “% ID/g Cerebellum” value is recorded as 0.55 ± 0.04 % ID/g, the “% ID/g Frontal Ctx.” value is recorded as 1.78 ± 0.23 % ID/g and the “% ID/g Hippocamp.” value is recorded as 1.14 ± 0.17 % ID/g. Also, in series [4] (30 min post-injection), the “% ID/g Hypothal.” value amounted to 1.48 ± 0.22 % ID/g, the “% ID/g Striatum” value is recorded as 1.41 ± 0.21 % ID/g and the “% ID/g Thalamus” value is 1.66 ± 0.17 % ID/g. Also, in series [4] (60 min post-injection), the “% ID/g Blood” value is reported as 0.15 ± 0.04 % ID/g, the “% ID/g Cerebellum” value turned out to be 0.27 ± 0.01 % ID/g, the “% ID/g Frontal Ctx.” value is recorded as 0.89 ± 0.07 % ID/g and the “% ID/g Hippocamp.” value was 0.84 ± 0.27 % ID/g. Further, in series [4] (60 min post-injection), the “% ID/g Hypothal.” value was 1.39 ± 0.28 % ID/g, the “% ID/g Striatum” value was determined as 0.81 ± 0.15 % ID/g and the “% ID/g Thalamus” value was found to be 1.14 ± 0.18 % ID/g.
On to `CN(C)Cc1ccccc1Sc1ccc(CCF)cc1N` [[^11C]AFE, [^11C]2-[2-(Dimethylaminomethyl)phenylthio]-5-fluoroethylphenylamine], for which, in series [4] (10 min post-injection), the “% ID/g Blood” value is 0.15 ± 0.03 % ID/g, the “% ID/g Cerebellum” value is recorded as 0.31 ± 0.03 % ID/g, the “% ID/g Frontal Ctx.” value stood at 0.61 ± 0.07 % ID/g and the “% ID/g Hippocamp.” value is given as 0.44 ± 0.04 % ID/g. For the same compound, in series [4] (10 min post-injection), the “% ID/g Hypothal.” value worked out at 0.61 ± 0.11 % ID/g, the “% ID/g Striatum” value is on record as 0.58 ± 0.08 % ID/g and the “% ID/g Thalamus” value is reported as 0.63 ± 0.08 % ID/g. Moreover, in series [4] (30 min post-injection), the “% ID/g Blood” value is listed as 0.07 ± 0.01 % ID/g, the “% ID/g Cerebellum” value was 0.12 ± 0.00 % ID/g, the “% ID/g Frontal Ctx.” value came out at 0.39 ± 0.03 % ID/g and the “% ID/g Hippocamp.” value is given as 0.31 ± 0.03 % ID/g. For the same compound, in series [4] (30 min post-injection), the “% ID/g Hypothal.” value is 0.44 ± 0.04 % ID/g, the “% ID/g Striatum” value turned out to be 0.35 ± 0.05 % ID/g and the “% ID/g Thalamus” value is 0.44 ± 0.05 % ID/g. In series [4] (60 min post-injection), the “% ID/g Blood” value is given as 0.05 ± 0.01 % ID/g, the “% ID/g Cerebellum” value came out at 0.05 ± 0.00 % ID/g, the “% ID/g Frontal Ctx.” value came out at 0.19 ± 0.02 % ID/g and the “% ID/g Hippocamp.” value is on record as 0.18 ± 0.02 % ID/g. Besides, in series [4] (60 min post-injection), the “% ID/g Hypothal.” value is recorded as 0.29 ± 0.03 % ID/g, the “% ID/g Striatum” value is given as 0.19 ± 0.02 % ID/g and the “% ID/g Thalamus” value turned out to be 0.22 ± 0.01 % ID/g. This compound had a Clearance in series [5] of 73 L/h. Further, the “Cerebellum V (nonspecific distribution volume)” value in the series with SERT worked out at 16 mL/g.
For `CN(C)Cc1ccccc1Sc1ccc(CCF)cc1N` [AFE, 2-(2-(Dimethylaminomethyl)phenylthio)-5-(2-fluoroethyl)phenylamine], the Ki was 1.88 nM in series [1], over 10000 nM in series [2] and 946 nM in series [3].
Turning to `CN(C)Cc1ccccc1Sc1ccc(F)cc1N` [AFA, 2-(2-(Dimethylaminomethyl)phenylthio)-5-fluorophenylamine], the Ki in series [1] (read-out: Ki SERT) is 1.46 nM; in series [2], over 10000 nM; in series [3], 142 nM.
With `CN(C)Cc1ccccc1Sc1ccc(CC[18F])cc1N` [[^18F]AFE, [^18F]2-[2-(Dimethylaminomethyl)phenylthio]-5-(2-fluoroethyl)phenylamine], in series [4] (10 min post-injection), the “% ID/g Blood” value worked out at 0.25 ± 0.01 % ID/g, the “% ID/g Cerebellum” value stood at 0.28 ± 0.02 % ID/g, the “% ID/g Frontal Ctx.” value was 0.62 ± 0.08 % ID/g and the “% ID/g Hippocamp.” value came out at 0.38 ± 0.03 % ID/g. In series [4] (10 min post-injection), the “% ID/g Hypothal.” value was 0.51 ± 0.05 % ID/g, the “% ID/g Striatum” value is reported as 0.51 ± 0.05 % ID/g and the “% ID/g Thalamus” value came to 0.58 ± 0.08 % ID/g. Also, in series [4] (30 min post-injection), the “% ID/g Blood” value turned out to be 0.13 ± 0.03 % ID/g, the “% ID/g Cerebellum” value came to 0.13 ± 0.01 % ID/g, the “% ID/g Frontal Ctx.” value turned out to be 0.32 ± 0.01 % ID/g and the “% ID/g Hippocamp.” value is 0.27 ± 0.04 % ID/g. For the same compound, in series [4] (30 min post-injection), the “% ID/g Hypothal.” value is 0.41 ± 0.03 % ID/g, the “% ID/g Striatum” value is 0.33 ± 0.01 % ID/g and the “% ID/g Thalamus” value is on record as 0.39 ± 0.01 % ID/g. Also, in series [4] (60 min post-injection), the “% ID/g Blood” value came to 0.07 ± 0.02 % ID/g, the “% ID/g Cerebellum” value came out at 0.06 ± 0.01 % ID/g, the “% ID/g Frontal Ctx.” value was found to be 0.19 ± 0.04 % ID/g and the “% ID/g Hippocamp.” value stood at 0.17 ± 0.04 % ID/g. In series [4] (60 min post-injection), the “% ID/g Hypothal.” value came to 0.24 ± 0.04 % ID/g, the “% ID/g Striatum” value is 0.21 ± 0.05 % ID/g and the “% ID/g Thalamus” value was 0.27 ± 0.04 % ID/g. In series [4] (90 min post-injection), the “% ID/g Blood” value is 0.04 ± 0.01 % ID/g, the “% ID/g Cerebellum” value worked out at 0.03 ± 0.01 % ID/g, the “% ID/g Frontal Ctx.” value was 0.08 ± 0.01 % ID/g and the “% ID/g Hippocamp.” value is on record as 0.09 ± 0.01 % ID/g. In series [4] (90 min post-injection), the “% ID/g Hypothal.” value turned out to be 0.14 ± 0.02 % ID/g, the “% ID/g Striatum” value amounted to 0.10 ± 0.02 % ID/g and the “% ID/g Thalamus” value was 0.17 ± 0.02 % ID/g. In series [4] (120 min post-injection), the “% ID/g Blood” value is on record as 0.02 ± 0.01 % ID/g, the “% ID/g Cerebellum” value is given as 0.02 ± 0.00 % ID/g, the “% ID/g Frontal Ctx.” value is given as 0.06 ± 0.00 % ID/g and the “% ID/g Hippocamp.” value is on record as 0.07 ± 0.00 % ID/g. Also, in series [4] (120 min post-injection), the “% ID/g Hypothal.” value is 0.10 ± 0.01 % ID/g, the “% ID/g Striatum” value was 0.08 ± 0.01 % ID/g and the “% ID/g Thalamus” value stood at 0.13 ± 0.02 % ID/g. The compound also gave a Clearance in series [5] of 71 L/h. Moreover, the “Cerebellum V (nonspecific distribution volume)” value in the series with SERT was 19 mL/g.
Consider `CN(C)Cc1ccccc1Sc1ccc(CCCF)cc1N` [AFP, 2-(2-(Dimethylaminomethyl)phenylthio)-5-(3-fluoropropyl)-phenylamine], for which the Ki was 3.58 nM in series [1], over 10000 nM in series [2] and 505 nM in series [3].

For the origin of these results see patent US20110097274A1, “Carbon-11 and fluorine-18 labeled radioligands for positron emission tomography (PET) imaging for the brain serotonin transporters” (priority 2002, published 2011).
